The supplement of paper PMC11368000

Columns and labels:
Settings in all cases: exposure time: 90 min
11235 [1] = donor line of iPSC-derived cardiomyocytes; assay: POD (EC95) for loss of peak frequency (asystole) vs vehicle; higher = less potent (higher point of departure)
How it was run: (§1)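 Cardiomyocytes derived from human iPSCs of 16 donors were grown 14 days in gelatin-coated 384-well plates, loaded 2 h with a fluorescent Ca2+ dye, then exposed for 90 min at 37 °C to final concentrations of 0.1, 1, 10 and 100 µM in 0.5% DMSO. A FLIPR Tetra recorded Ca2+ flux at 8 frames/s for 100 s before and after exposure. Points of departure for each donor were derived by hierarchical Bayesian Hill fitting of vehicle-normalised beat frequency, decay-to-rise ratio or peak frequency. The thresholds applied were a 5% change, or a 95% loss for peak frequency.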

1118 [2] = donor line of iPSC-derived cardiomyocytes; assay: as above
How it was run: as §1

20032 [3] = donor line of iPSC-derived cardiomyocytes; assay: as above
How it was run: as §1

1083 [4] = donor line of iPSC-derived cardiomyocytes; assay: as above
How it was run: as §1

1565 [5] = donor line of iPSC-derived cardiomyocytes; assay: as above
How it was run: as §1

1434 [6] = donor line of iPSC-derived cardiomyocytes; assay: as above
How it was run: as §1

1531 = donor line of iPSC-derived cardiomyocytes; assay: as above
How it was run: as §1

30171 [7] = donor line of iPSC-derived cardiomyocytes; assay: as above
How it was run: as §1

1309 = donor line of iPSC-derived cardiomyocytes; assay: POD (EC05) for increase in Ca2+ transient decay-to-rise ratio (QT prolongation) vs vehicle; higher = less potent (higher point of departure)
Experimental: (§2)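 Human iPSC-derived cardiomyocytes from 16 donors were exposed for 90 min at 37 °C to each PFAS at 0.1, 1, 10 and 100 µM in 0.5% DMSO, 384-well plates. Kinetic Ca2+ flux (FLIPR) and Hoechst nuclei counts were normalised to vehicle wells and fitted with a hierarchical Bayesian Hill model to give donor-specific PODs: EC05 for beat-rate increase or decrease and for decay-to-rise ratio increase (QT proxy), EC95 for peak-frequency loss (asystole), EC10 for total cell number loss. 0.03 µM is the lower bound.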

11235 [8] = assay: as above
Experimental: as §2

1392 = donor line of iPSC-derived cardiomyocytes; assay: as above
Experimental: as §2

1118 [9] = assay: as above
Experimental: as §2

20032 [10] = assay: as above
Experimental: as §2

1083 [11] = assay: as above
Experimental: as §2

1565 [12] = assay: as above
Experimental: as §2

30145 = donor line of iPSC-derived cardiomyocytes; assay: as above
Experimental: as §2

1368 = donor line of iPSC-derived cardiomyocytes; assay: as above
Experimental: as §2

1434 [13] = assay: as above
Experimental: as §2

20084 = donor line of iPSC-derived cardiomyocytes; assay: as above
Experimental: as §2

30171 [14] = assay: as above
Experimental: as §2

| SMILES | POD vs vehicle 11235 [1] [µM] | POD vs vehicle 1118 [2] [µM] | POD vs vehicle 20032 [3] [µM] | POD vs vehicle 1083 [4] [µM] | POD vs vehicle 1565 [5] [µM] | POD vs vehicle 1434 [6] [µM] | POD vs vehicle 1531 [µM] | POD vs vehicle 30171 [7] [µM] | POD vs vehicle 1309 [µM] | POD vs vehicle 11235 [8] [µM] | POD vs vehicle 1392 [µM] | POD vs vehicle 1118 [9] [µM] | POD vs vehicle 20032 [10] [µM] | POD vs vehicle 1083 [11] [µM] | POD vs vehicle 1565 [12] [µM] | POD vs vehicle 30145 [µM] | POD vs vehicle 1368 [µM] | POD vs vehicle 1434 [13] [µM] | POD vs vehicle 20084 [µM] | POD vs vehicle 30171 [14] [µM] |
| --- | --- | --- | --- | --- | --- | --- | --- | --- | --- | --- | --- | --- | --- | --- | --- | --- | --- | --- | --- | --- |
| OCC(F)(F)C(F)(F)C(F)(F)F [Heptafluorobutanol] | > 100 | > 100 | > 100 | > 100 | > 100 | > 100 | > 100 | > 100 | > 100 | > 100 | > 100 | > 100 | > 100 | > 100 | > 100 | > 100 | > 100 | > 100 | > 100 | > 100 |
| OCC(F)(F)C(F)(F)C(F)(F)CO [Hexafluoroamylene_glycol] | > 100 | > 100 | > 100 | > 100 | > 100 | > 100 | > 100 | > 100 | > 100 | > 100 | > 100 | > 100 | > 100 | > 100 | > 100 | > 100 | > 100 | > 100 | > 100 | > 100 |
| COC(=O)C(F)(F)C(F)(F)OC(F)(C(F)(F)F)C(F)(F)OC(F)=C(F)F (stereo not given) [Methyl_perfluoro(3-(1-ethenyloxypropan-2-yloxy)propanoate)] | > 100 | > 100 | > 100 | > 100 | > 100 | > 100 | > 100 | > 100 | > 100 | > 100 | > 100 | > 100 | > 100 | > 100 | > 100 | > 100 | > 100 | > 100 | 37.5 | > 100 |
| NC(=O)C(F)(F)C(F)(F)C(F)(F)C(F)(F)F [Nonafluoropentanamide] | > 100 | 84.9 | > 100 | > 100 | > 100 | > 100 | > 100 | > 100 | > 100 | > 100 | > 100 | > 100 | 0.52 | > 100 | > 100 | > 100 | > 100 | 0.357 | > 100 | > 100 |
| NC(=O)C(F)(F)C(F)(F)C(F)(F)C(F)(F)C(N)=O [Octafluoroadipamide] | > 100 | > 100 | > 100 | > 100 | > 100 | > 100 | > 100 | > 100 | > 100 | > 100 | > 100 | > 100 | > 100 | > 100 | > 100 | > 100 | > 100 | > 100 | > 100 | > 100 |
| O=C(O)C(F)(F)C(F)(F)C(F)(F)C(F)(F)C(=O)O [Octafluoroadipic_acid] | > 100 | > 100 | > 100 | > 100 | > 100 | > 100 | > 100 | > 100 | > 100 | > 100 | > 100 | > 100 | > 100 | > 100 | > 100 | > 100 | > 100 | > 100 | > 100 | > 100 |
| O=C(O)C(F)(F)C(F)(F)C(F)(F)OC(F)(F)F [Perfluoro(4-methoxybutanoic)_acid] | > 100 | > 100 | > 100 | > 100 | > 100 | > 100 | > 100 | > 100 | > 100 | > 100 | > 100 | > 100 | > 100 | > 100 | > 100 | > 100 | > 100 | > 100 | > 100 | > 100 |
| O=C(O)C(F)(F)OC(F)(F)C(F)(F)OC(F)(F)C(F)(F)OC(F)(F)C(F)(F)C(F)(F)C(F)(F)F [Perfluoro-3,6,9-trioxatridecanoic_acid] | 92.2 | 63.7 | > 100 | 79.4 | > 100 | 89.3 | 11.4 | 73 | > 100 | > 100 | > 100 | > 100 | > 100 | > 100 | > 100 | > 100 | > 100 | > 100 | > 100 | > 100 |
| O=C(O)C(F)(F)OC(F)(F)C(F)(F)OC(F)(F)F [Perfluoro-3,6-dioxaheptanoic_acid] | > 100 | > 100 | > 100 | > 100 | > 100 | > 100 | > 100 | > 100 | > 100 | > 100 | > 100 | > 100 | > 100 | > 100 | > 100 | > 100 | > 100 | > 100 | > 100 | > 100 |
| O=C(O)C(F)(F)OC(F)(F)C(F)(F)OC(F)(F)C(=O)O [Perfluoro-3,6-dioxaoctane-1,8-dioic_acid] | > 100 | > 100 | > 100 | > 100 | > 100 | > 100 | > 100 | > 100 | > 100 | > 100 | > 100 | > 100 | > 100 | > 100 | > 100 | > 100 | > 100 | > 100 | > 100 | > 100 |
